Legend:
[1] = target: T1, recombinant human Muscarinic M1 receptor (Homo sapiens, UniProt P11229); assay: Allosteric potency EC50 for Muscarinic M1 receptor, CHO pCRE-Luc reporter assay with EC20 of acetylcholine; type: cell-based; conditions: CHO cells, in presence of EC20 of acetylcholine, 4 hours
T1 construct: expressed in transfected cells
T1 sequence (P11229 1-460): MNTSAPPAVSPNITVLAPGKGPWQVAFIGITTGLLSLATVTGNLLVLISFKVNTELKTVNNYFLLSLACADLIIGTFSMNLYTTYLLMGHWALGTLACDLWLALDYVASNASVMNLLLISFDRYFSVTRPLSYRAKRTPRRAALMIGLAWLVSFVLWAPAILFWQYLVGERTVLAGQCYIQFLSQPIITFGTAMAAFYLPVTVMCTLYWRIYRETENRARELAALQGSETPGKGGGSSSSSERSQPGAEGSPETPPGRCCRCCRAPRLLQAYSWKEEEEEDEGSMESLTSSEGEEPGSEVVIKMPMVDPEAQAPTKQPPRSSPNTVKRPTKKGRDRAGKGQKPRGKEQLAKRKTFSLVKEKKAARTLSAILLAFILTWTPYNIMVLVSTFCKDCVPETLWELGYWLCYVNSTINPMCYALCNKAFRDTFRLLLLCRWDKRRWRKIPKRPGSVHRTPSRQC
Protocol: Determination of Allosteric Potency EC50 Values for Muscarinic M1 Receptor:
A stable CHO cell line expressing recombinant human Muscarinic M1 receptor and pCRE-Luc reporter system was used for cell-based assay. The assay offers a non-radioactive based approach to determine binding of a compound to GPCRs. In this specific assay, the level of intracellular cyclic AMP which is modulated by activation or inhibition of the receptor is measured. The recombinant cells harbor luciferase reporter gene under the control of cAMP response element.
The above cells were grown in 96 well clear bottom white plates in Hams F12 medium containing 10% fetal bovine serum (FBS). Prior to the addition of compounds or standard agonist, cells were serum starved overnight. Increasing concentrations of test compounds were added along with EC20 of acetylcholine in OptiMEM medium to the cells. The incubation was continued at 37° C. in CO2 incubator for 4 hours. Medium was removed and cells were washed with phosphate buffered saline. The cells were lysed and luciferase activity was measured in a Luminometer. Luminescence counts in each concentrations of test item were normalized to the acetylcholine induced maximum response and the data was analyzed using Graphpad software. EC50 values of the compounds were defined as the concentration required in stimulating the luciferase activity by 50% in presence of EC20 of acetylcholine.

[2] = Rodent pharmacokinetic study; type: in vivo, Male Wistar rats; conditions: male, Wistar, rat, plasma; for bioavailability: oral 3 mg/kg vs i.v. 1 mg/kg
Protocol: Rodent Pharmacokinetic Study
Male Wistar rats (260±50 grams) were used as experimental animals. Animals were housed individually in polypropylene cage. Two days prior to study, male Wistar rats were anesthetized with isoflurane for surgical placement of jugular vein catheter. Rats were randomly divided for oral (3 mg/kg) and intravenous (i.v) (1 mg/kg) dosing (n=3/group) and fasted overnight before oral dosing (p.o.). However, rats allocated to intravenous (i.v.) dosing food and water was provided ad libitum.
At pre-determined point, blood was collected through jugular vein and replenished with an equivalent volume of normal saline. Collected blood was transferred into a labeled eppendorf tube containing 10 μL of heparin as an anticoagulant. Typically blood samples were collected at following time points: 0.08, 0.25, 0.5, 1, 2, 4, 6, 8, and 24 hours post dose. Blood was centrifuged at 4000 rpm for 10 minutes. Plasma was separated and stored frozen at −80° C. until analysis. The concentrations of the test compounds were quantified in plasma by qualified LC-MS/MS method using suitable extraction technique. The test compounds were quantified in the calibration range around 1-1000 ng/mL in plasma. Study samples were analyzed using calibration samples in the batch and quality control samples spread across the batch.
Pharmacokinetic parameters Cmax, AUCt, T1/2, clearance and bioavailability (F) were calculated by non-compartmental model using standard non-compartmental model by using Phoenix WinNonlin 6.0.2 or 6.0.3 version Software package.

[3] = Rodent brain penetration study; type: in vivo, Male Wistar rats; conditions: male, Wistar, brain and plasma, po; rat, 3 mg/kg, p.o. @ 1.0 hr, brain-plasma ratio; read-out: Single dose Rat Brain Penetration (Cb/Cp)
Protocol: Rodent Brain Penetration Study
Male Wistar rats (260±40 grams) were used as experimental animals. Three animals were housed in each cage. Animals were given water and food ad libitum throughout the experiment and maintained on a 12 hours light/dark cycle.
Brain penetration was determined in discrete manner in rats. One day prior to dosing day, male Wistar rats were acclimatized and randomly grouped according to their weight. At each time point (0.5, 1 and 2 hours) n=3 animals were used.
The test compounds were suitably preformulated and administered orally at (free base equivalent) 3 mg/kg. Blood samples were removed via cardiac puncture by using isoflurane anesthesia. The animals were sacrificed to collect brain tissue. Plasma was separated and brain samples were homogenized and stored frozen at −20° C. until analysis. The concentrations of the test compounds in plasma and brain were determined using LC-MS/MS method.
The test compounds were quantified in plasma and brain homogenate by qualified LC-MS/MS method using suitable extraction technique. The test compounds were quantified in the calibration range of 1-500 ng/mL in plasma and brain homogenate. Study samples were analyzed using calibration samples in the batch and quality control samples spread across the batch.

Male Wistar rats = assay: Object recognition task model; type: in vivo; conditions: rat, p.o.; for Exploration time mean ± S.E.M, Familiar object / Exploration time mean ± S.E.M, Novel object: choice trial T2, 24 hours after T1
Protocol: Object Recognition Task Model
The cognition enhancing properties of compounds of this invention were estimated by using this model.
Male Wistar rats (8-10 weeks old) were used as experimental animals. Four animals were housed in each cage. Animals were kept on 20% food deprivation from a day prior to experimentation. Water was provided ad libitum throughout the experiment. Animals were maintained on a 12 hours light/dark cycle in temperature and humidity controlled room. The experiment was carried out in a circular or square arena made up of acrylic. Rats were habituated to individual arenas for up to 1 hour in the absence of any objects on day 1.
One group of 12 rats received vehicle and another set of animals received compound of the formula (I), before the familiar (T1) and choice (T2) trials. During the familiarization phase, (T1), the rats were placed individually in the arena for 3 minutes, in which two identical objects (a1 and a2) were positioned 10 cm from the wall. 24 hours after T1, trial for long-term memory test was performed. The same rats were placed in the same arena as they were placed in T1 trial. During the choice phase (T2) rats were allowed to explore the arena for 3 minutes in presence of a copy of familiar object (a3) and one novel object (b). During the T1 and T2 trial, explorations of each object (defined as sniffing, licking, chewing or having moving vibrissae whilst directing the nose towards the object at a distance of less than 1 cm) were recorded using stopwatch.
T1 is the total time spent exploring the familiar objects (a1+a2).
T2 is the total time spent exploring the familiar object and novel object (a3+b).
The object recognition test was performed as described by Ennaceur, A., Delacour, J., 1988, A new one-trial test for neurobiological studies of memory in rats˜Behavioural data, Behav. Brain Res., 31, 47-59.

EC50 [1] [nM] | AUC(0-t) ([2]; iv, i.v. 1 mg/kg) [ng·h/mL] | half-life ([2]; iv, i.v. 1 mg/kg) [h] | clearance ([2]; iv, i.v. 1 mg/kg) [mL/min/kg] | bioavailability [2] [%] | AUC(0-t) ([2]; oral 3 mg/kg) [ng·h/mL] | Cmax ([2]; oral 3 mg/kg) [ng/mL] | half-life ([2]; oral 3 mg/kg) [h] | Kp at 1 h [3] | Compound | Inference (Male Wistar rats; 1 mg/kg) | Exploration time mean ± S.E.M, Familiar object (Male Wistar rats; 1 mg/kg) [s] | Exploration time mean ± S.E.M, Novel object (Male Wistar rats; 1 mg/kg) [s] | Inference (Male Wistar rats; 0.3 mg/kg) | Exploration time mean ± S.E.M, Familiar object (Male Wistar rats; 0.3 mg/kg) [s] | Exploration time mean ± S.E.M, Novel object (Male Wistar rats; 0.3 mg/kg) [s]
1340 | 1380 ± 390 | 2.7 ± 0.8 | 12.2 ± 3.1 | 39 ± 3 | 1610 ± 139 | 402 ± 98 | 3.4 ± 0.7 | 1.52 ± 0.15 | COc1ccc(Cc2cc(C(=O)N[C@H]3CCCC[C@@H]3O)n3ncccc23)cc1 [Example 20, N-(cis-1S,2S-2-Hydroxycyclohexyl)-5-(4-methoxybenzyl)-pyrrolo[1,2-b]pyridazine-7-carboxamide] | Active | 10.31 ± 1.07 | 14.92 ± 1.11 |  |  | 
989 | 3230 ± 625 | 3.7 ± 0.3 | 5 ± 0.7 | 66 ± 3 | 6390 ± 312 | 793 ± 86 | 4.4 ± 2.3 | 0.13 ± 0.02 | Cn1cc(-c2ccc(Cc3cc(C(=O)N[C@H]4CCCC[C@@H]4O)n4ncccc34)c(F)c2)cn1 [Example 34, N-(cis-1S,2S-2-Hydroxycyclohexyl)-5-[2-fluoro-4-(1-methyl-1H-pyrazol-4-yl)-benzyl]-pyrrolo[1,2-b]pyridazine-7-carboxamide] |  |  |  | Active | 10.35 ± 1.75 | 15.63 ± 3.23

— US11234979B2, “Heteroaryl compounds as muscarinic M1 receptor positive allosteric modulators” (SUVEN LIFE SCIENCES LIMITED, priority 2017, dated 2022)
